Assay results reported in patent publication US20120152149A1, “USE OF 1,3-DIOLS AS BIOCIDES” (BASF SE, priority 2009, published 2012).
Like-named read-outs stand apart in the source and are kept apart here.

Assays:
Format in all cases: cell-based
[1] = tested on: A. niger IMI 149007; assay: Microstatic activity, MIC in tryptone soy broth; conditions: Aspergillus niger, IMI149007, 120 h, 25° C., 5 days
Protocol: (§1) For this, in each case a 40 percent strength by weight solution of a diol in propylene glycol was prepared at 60° C. This solution was diluted with a double-strength soy solution (double-strength tryptone soy broth) as nutrient medium in the volume ratio 1:1. Further dilution with soy solution produced solutions with the following concentrations: 400 000 ppm (40%), 200 000 ppm (20%), 100 000 ppm (10%), 50 000 ppm (5%), 25 000 ppm (2.5%), 12 500 ppm (1.25%), 6250 ppm (0.625%), 3125 ppm (0.3125%). Pure soy solution was used as negative control. The positive control used was a solution of 5 ml of soy solution which has been treated with 0.1 ml of the respective microorganism. The test solutions consisted of 5 ml of the above-described soy solutions of the diols in the particular concentration which have been mixed with 0.1 ml of the respective microorganism. The samples and controls were incubated in the case of the bacteria at 30° C. for 48 hours, and in the case of fungi over 5 days at 25° C. In each case, the MIC (Minimum Inhibitory Concentration) value was determined. This value indicates the minimum concentration above which the growth of the microorganisms was visibly hindered compared to the corresponding sample without addition of the diol. […] For example, this was evident from the occurrence of clouding or visible growth of the microorganism. […] The MIC value stated is a range between the next higher concentration of a positive test and the same and/or lower concentration of a first negative test.

[2] = tested on: C. albicans NCPF 3179; assay: Microstatic activity, MIC in tryptone soy broth; conditions: 25° C., 5 days; for MIC: Candida albicans, NCPF3179, 120 h
Protocol: as §1

[3] = tested on: E. coli NCIMB 8545; assay: Microstatic activity, MIC in tryptone soy broth; conditions: Escherichia coli, NCIMB8545, 30° C., 48 hours
Protocol: as §1

[4] = tested on: P. aeruginosa NCIMB 10421; assay: Microstatic activity, MIC in tryptone soy broth; conditions: Pseudomonas aeruginosa, NCIMB10421, 30° C., 48 hours
Protocol: as §1

[5] = tested on: P. vulgaris NCIMB 4175; assay: Microstatic activity, MIC in tryptone soy broth; conditions: Proteus vulgaris, NCIMB4175, 30° C., 48 hours
Protocol: as §1

[6] = tested on: S. aureus NCIMB 9578; assay: Microstatic activity, MIC in tryptone soy broth; conditions: Staphylococcus aureus, NCIMB9578, 30° C., 48 hours
Protocol: as §1

[7] = tested on: series of tested microorganisms (bacteria and fungi); assay: Microstatic activity, highest MIC from the series of tested microorganisms; conditions: highest measured MIC from the series of tested microorganisms
Protocol: The following microorganisms were used;to test the biocidal effect against various bacteria and fungi: In each case, the MIC (Minimum Inhibitory Concentration) value was determined. This value indicates the minimum concentration above which the growth of the microorganisms was visibly hindered compared to the corresponding sample without addition of the diol. The MIC value stated is a range between the next higher concentration of a positive test and the same and/or lower concentration of a first negative test. In the last line of each of the tables below, a “maximum” value is listed. This value indicates the highest measured MIC value in each case from the series of tested microorganisms.

[8] = tested on: A. niger ATCC 16404; assay: Preservation stress test, example formulation 1 (standard emulsion O/W); conditions: 1% active substance
Protocol: (§2) Preservation stress tests (PSTs) were carried out in order to determine the preserving activity of the diols. In the preservation stress test, this is simulated through artificial loadings with microorganisms. These can either be inoculated as mixed population or individually in mixtures independent of one another. The inoculated product samples are incubated under defined conditions and, after defined times, samples are taken in order to determine the germ loading. In the case of adequate preservation, the number of microorganisms should, depending on the type, either decrease or remain constant in order to satisfy the requirements specified, e.g. in Ph. Eur. 6.0. To investigate the preserving effect of the diols, application-typical amounts of the diols were incorporated into example formulations. […] [table] These example formulations were used to prepare various mixtures which each comprised 1% active substance or comprised water instead of the active substance as placebo mixtures. These mixtures were in each case inoculated with the test germs such that a germ loading of 10^5-10^6 CFU/g was present in the test mixture. The bacteria were either used individually for the inoculation or as a mixed culture. To determine the starting germ count, immediately after inoculation, an aliquot was taken, diluted in dilution medium (phosphate buffer, 0.07 molar pH 7.4 (+/−0.2), with 1% Tween 80+0.3% soya lecithin), and the surviving germ count was determined in the dilution stages 10^−1 to 10^−3. The inoculated product samples then incubated for a total of 28 d at 20-25° C. After 2 d, 7 d, 14 d and after 28 d, aliquots were taken and diluted in dilution medium (phosphate buffer, 0.07 molar pH 7.4 (+/−0.2), with 1% Tween 80+0.3% soya lecithin). The surviving germ counts were determined in the dilution stages 10^−1 to 10^−4. The reference point taken for determining the reduction in germ count was the respective initial value of the sample. The results were given as logarithmic reductions.

[9] = tested on: C. albicans ATCC 10231; assay: as above; conditions: 1% active substance
Protocol: as §2

[10] = tested on: A. niger ATCC 16404; assay: Preservation stress test, example formulation 2 (roll-on deodorant formulation); conditions: 1% active substance
Protocol: as §2

[11] = tested on: E. coli ATCC 10536; assay: as above; conditions: 1% active substance
Protocol: as §2

[12] = tested on: P. aeruginosa ATCC 15442; assay: as above; conditions: 1% active substance
Protocol: as §2

[13] = lower limit of MIC range, read-out: MIC value (ppm of diol), from
[14] = upper limit of MIC range, read-out: MIC value (ppm of diol), to
[15] = lower limit, read-out: Maximum MIC value (ppm of diol), from

Row | MIC [1, 13] [µg/mL] | MIC [1, 14] [µg/mL] | MIC [2, 14] [mg/mL] | MIC [3, 13] [mg/mL] | MIC [3, 14] [mg/mL] | MIC [4, 13] [mg/mL] | MIC [5, 13] [mg/mL] | MIC [5, 14] [mg/mL] | MIC [6, 13] [mg/mL] | MIC [6, 14] [mg/mL] | MIC [7, 15] [mg/mL] | Structure (SMILES) | Microbicidal activity given as logarithmic reduction in germ count ([8]; 48 h) [log. Red.] | Microbicidal activity given as logarithmic reduction in germ count ([8]; 7 d) [log. Red.] | Microbicidal activity given as logarithmic reduction in germ count ([8]; 14 d) [log. Red.] | Microbicidal activity given as logarithmic reduction in germ count ([8]; 28 d) [log. Red.] | Microbicidal activity given as logarithmic reduction in germ count ([9]; 48 h) | Microbicidal activity given as logarithmic reduction in germ count ([9]; 7 d) | Microbicidal activity given as logarithmic reduction in germ count ([9]; 14 d) [log. Red.] | Microbicidal activity given as logarithmic reduction in germ count ([9]; 28 d) [log. Red.] | Microbicidal activity given as logarithmic reduction in germ count ([10]; 48 h) [log. Red.] | also measured
1 | > 6250 | ≤ 12500 | ≤ 12.5 | > 50 | ≤ 100 | > 100 | > 25 | ≤ 50 | > 50 | ≤ 100 | > 100 | CCCCCC(CO)(CO)CCC [PPPD, 2-pentyl-2-propylpropane-1,3-diol] | 0 | 1 | 1 | 1 | ≧3 log. Red. | 5 log. Red. | 5 | 5 | 0 | MIC [2, 13]: > 6.25 mg/mL; Microbicidal activity given as logarithmic reduction in germ count ([10]; 7 d): 0 log. Red.; Microbicidal activity given as logarithmic reduction in germ count ([10]; 14 d): 0 log. Red.; Microbicidal activity given as logarithmic reduction in germ count ([11]; 48 h): ≧3 log. Red.; Microbicidal activity given as logarithmic reduction in germ count ([11]; 7 d): 5 log. Red.; Microbicidal activity given as logarithmic reduction in germ count ([11]; 14 d): 5 log. Red.; Microbicidal activity given as logarithmic reduction in germ count ([11]; 28 d): 5 log. Red.; Microbicidal activity given as logarithmic reduction in germ count ([12]; 48 h): 5 log. Red.; Microbicidal activity given as logarithmic reduction in germ count ([12]; 7 d): 5 log. Red.; Microbicidal activity given as logarithmic reduction in germ count ([12]; 14 d): 5 log. Red.; Microbicidal activity given as logarithmic reduction in germ count ([12]; 28 d): 5 log. Red.
2 | > 3120 | ≤ 6250 | ≤ 3.12 | > 50 | ≤ 100 | > 100 | > 50 | ≤ 100 | > 25 | ≤ 50 | > 100 | CCCCCCCCC(C)(CO)CO [OMPD, 2-octyl-2-methylpropane-1,3-diol] | 0 | 0 | 1 | 1 | ≧3 log. Red. | 5 log. Red. | 5 | 5 | 0 | MIC value (ppm of diol), from ([2]; lower limit of MIC range): >0 ppm; Microbicidal activity given as logarithmic reduction in germ count ([10]; 7 d): 0 log. Red.; Microbicidal activity given as logarithmic reduction in germ count ([10]; 14 d): 0 log. Red.; Microbicidal activity given as logarithmic reduction in germ count ([11]; 48 h): 0 log. Red.; Microbicidal activity given as logarithmic reduction in germ count ([11]; 7 d): ≧3 log. Red.; Microbicidal activity given as logarithmic reduction in germ count ([11]; 14 d): 5 log. Red.; Microbicidal activity given as logarithmic reduction in germ count ([11]; 28 d): 5 log. Red.; Microbicidal activity given as logarithmic reduction in germ count ([12]; 48 h): ≧3 log. Red.; Microbicidal activity given as logarithmic reduction in germ count ([12]; 7 d): 5 log. Red.; Microbicidal activity given as logarithmic reduction in germ count ([12]; 14 d): 5 log. Red.; Microbicidal activity given as logarithmic reduction in germ count ([12]; 28 d): 5 log. Red.
3 | > 25000 | ≤ 50000 | ≤ 100 | > 3.12 | ≤ 6.25 | > 12.5 | > 6.25 | ≤ 12.5 | > 12.5 | ≤ 25 | > 50 | OCC1(CO)CC2CCC1C2 (centres unmarked) [2,2-DMNB, 2,2-dimethylolnorbornane] | 0 | 0 | 0 | 0 | 1 log. Red. | ≧3 log. Red. | 5 | 5 | 0 | MIC [2, 13]: > 50 mg/mL; MIC [4, 14]: ≤ 25 mg/mL; MIC ([7]; upper limit, read-out: Maximum MIC value (ppm of diol), to): ≤ 100 mg/mL; Microbicidal activity given as logarithmic reduction in germ count ([10]; 7 d): 0 log. Red.; Microbicidal activity given as logarithmic reduction in germ count ([10]; 14 d): 0 log. Red.; Microbicidal activity given as logarithmic reduction in germ count ([11]; 48 h): 2 log. Red.; Microbicidal activity given as logarithmic reduction in germ count ([11]; 7 d): ≧3 log. Red.; Microbicidal activity given as logarithmic reduction in germ count ([11]; 14 d): 5 log. Red.; Microbicidal activity given as logarithmic reduction in germ count ([11]; 28 d): 5 log. Red.; Microbicidal activity given as logarithmic reduction in germ count ([12]; 48 h): 3 log. Red.; Microbicidal activity given as logarithmic reduction in germ count ([12]; 7 d): 5 log. Red.; Microbicidal activity given as logarithmic reduction in germ count ([12]; 14 d): 5 log. Red.; Microbicidal activity given as logarithmic reduction in germ count ([12]; 28 d): 5 log. Red.
